Results: patent US20110318344A1, “Tumor Treatment” (MEDIZINISCHE UNIVERSITAET WIEN, priority 2009, published 2011)
“Also recorded” adds a separate entry of the source.

Legend:
SK-OV-3 cells = assay: Proliferation assay (cell number by CASY cell counter, doubling time); assay type: cell-based, human
Protocol: The SK-OV-3 cell line was cultured equally the MDAH-2774 cell line except for the use of McCoy's medium. For applying the Tet-Off inducible system, founder cell lines were generated by transfecting SK-OV-3 cells with the pTet-Off vector (neo^r) encoding a tetracyclin repressible transactivator (tTA). Resistant colonies were selected with 200 μg/ml G418 and characterized by transient transfection with the luciferase reporter plasmid (pTRE-Luc), whose promoter is induced by the transactivator. Luciferase activity in the presence and absence of tetracycline was measured to identify cells with maximal promoter inducibility. […] These two founder cell lines were used to establish cells inducible for HCRP1-specific shRNA constructs (Open Biosystems; #V2HS 21202, #V2HS 21203), which were cloned into the SIN-TREmiR30-PIG vector (purr) downstream of the tetracycline inducible promoter. Thus, presence of tetracycline in the culture medium would suppress shRNA expression, while its withdrawal would induce the knock-down of HCRP1. […]
To maintain the logarithmic phase, cells were split at intervals of 48 hours, along with the determination of the cell number by a CASY cell counter (Innovatis AG, Bielefeld, Germany). […] From the obtained data doubling times (dt) were calculated and depicted as dt-1.

MDAH-2774 cells = assay: as above; assay type: cell-based, human; settings: MDAH-2774, HCRP1-silenced vs controls (FIG. 7B)
Protocol: To maintain the logarithmic phase, cells were split at intervals of 48 hours, along with the determination of the cell number by a CASY cell counter (Innovatis AG, Bielefeld, Germany). This procedure was performed in triplicates over a time-span of 6 days and confirmed by a replication of the whole experiment. From the obtained data doubling times (dt) were calculated and depicted as dt-1.

CS(=O)(=O)CCNCc1ccc(-c2ccc3ncnc(Nc4ccc(OCc5cccc(F)c5)c(Cl)c4)c3c2)o1 [Lapatinib]
dependence of the anti-proliferative effect on HCRP1 expression (SK-OV-3 cells; SKOV-3, HCRP1-silenced vs controls (FIG. 7A)): independent of HCRP1 expression; also recorded: unaffected by HCRP1 expression
doubling time (SK-OV-3 cells; SKOV-3 cells, 4 μM Lapatinib, 6 days, HCRP1 status not specified): 37.3 h
dependence of the anti-proliferative effect on HCRP1 expression (MDAH-2774 cells): independent of HCRP1 expression
